In US20220033407A1, “N-(pyridin-2-ylsulfonyl)cyclopropanecarboxamide Derivatives and their Use in the Treatment of Disease” (NOVARTIS AG, priority 2018, published 2022):

Experiments:
[1] = molecular target: T1, delF508-CFTR (Homo sapiens, UniProt P13569, DEL508-508); experiment: delF508-CFTR functional activity in primary human bronchial epithelial cells (HBECs), Multi-Transepithelial Clamp Circuit (MTECC-24) assay, equivalent short circuit current; assay type: cell-based; conditions: primary CF HBECs; for MTECC24 CFHBEC-Amax %: relative to reference combination 2 μM 3-(6-(1-(2,2-difluorobenzo[d][1,3]dioxol-5-yl)cyclopropane-1-carboxamido)-3-methylpyridin-2-yl)benzoic acid (24 h) + 0.5 μM N-(2,4-di-tert-butyl-5-hydroxyphenyl)-4-oxo-1,4-dihydroquinoline-3-carboxamide; for EC50: test compound added 24 h before assay, potentiator (S)-3-amino-6-methoxy-N-(3,3,3-trifluoro-2-hydroxy-2-methylpropyl)-5-(trifluoromethyl)picolinamide present at assay, mean of at least two replicates, read-out: MTECC24 CFHBEC-EC50
T1 construct: functional activity of the CFTR channel (Chloride ion transport) in patient derived primary human bronchial epithelial cells; host or cells: patient-derived primary human bronchial epithelial cells (HBECs), delF508-CFTR
T1 sequence (P13569 with tags, fused parts or gaps DEL508-508): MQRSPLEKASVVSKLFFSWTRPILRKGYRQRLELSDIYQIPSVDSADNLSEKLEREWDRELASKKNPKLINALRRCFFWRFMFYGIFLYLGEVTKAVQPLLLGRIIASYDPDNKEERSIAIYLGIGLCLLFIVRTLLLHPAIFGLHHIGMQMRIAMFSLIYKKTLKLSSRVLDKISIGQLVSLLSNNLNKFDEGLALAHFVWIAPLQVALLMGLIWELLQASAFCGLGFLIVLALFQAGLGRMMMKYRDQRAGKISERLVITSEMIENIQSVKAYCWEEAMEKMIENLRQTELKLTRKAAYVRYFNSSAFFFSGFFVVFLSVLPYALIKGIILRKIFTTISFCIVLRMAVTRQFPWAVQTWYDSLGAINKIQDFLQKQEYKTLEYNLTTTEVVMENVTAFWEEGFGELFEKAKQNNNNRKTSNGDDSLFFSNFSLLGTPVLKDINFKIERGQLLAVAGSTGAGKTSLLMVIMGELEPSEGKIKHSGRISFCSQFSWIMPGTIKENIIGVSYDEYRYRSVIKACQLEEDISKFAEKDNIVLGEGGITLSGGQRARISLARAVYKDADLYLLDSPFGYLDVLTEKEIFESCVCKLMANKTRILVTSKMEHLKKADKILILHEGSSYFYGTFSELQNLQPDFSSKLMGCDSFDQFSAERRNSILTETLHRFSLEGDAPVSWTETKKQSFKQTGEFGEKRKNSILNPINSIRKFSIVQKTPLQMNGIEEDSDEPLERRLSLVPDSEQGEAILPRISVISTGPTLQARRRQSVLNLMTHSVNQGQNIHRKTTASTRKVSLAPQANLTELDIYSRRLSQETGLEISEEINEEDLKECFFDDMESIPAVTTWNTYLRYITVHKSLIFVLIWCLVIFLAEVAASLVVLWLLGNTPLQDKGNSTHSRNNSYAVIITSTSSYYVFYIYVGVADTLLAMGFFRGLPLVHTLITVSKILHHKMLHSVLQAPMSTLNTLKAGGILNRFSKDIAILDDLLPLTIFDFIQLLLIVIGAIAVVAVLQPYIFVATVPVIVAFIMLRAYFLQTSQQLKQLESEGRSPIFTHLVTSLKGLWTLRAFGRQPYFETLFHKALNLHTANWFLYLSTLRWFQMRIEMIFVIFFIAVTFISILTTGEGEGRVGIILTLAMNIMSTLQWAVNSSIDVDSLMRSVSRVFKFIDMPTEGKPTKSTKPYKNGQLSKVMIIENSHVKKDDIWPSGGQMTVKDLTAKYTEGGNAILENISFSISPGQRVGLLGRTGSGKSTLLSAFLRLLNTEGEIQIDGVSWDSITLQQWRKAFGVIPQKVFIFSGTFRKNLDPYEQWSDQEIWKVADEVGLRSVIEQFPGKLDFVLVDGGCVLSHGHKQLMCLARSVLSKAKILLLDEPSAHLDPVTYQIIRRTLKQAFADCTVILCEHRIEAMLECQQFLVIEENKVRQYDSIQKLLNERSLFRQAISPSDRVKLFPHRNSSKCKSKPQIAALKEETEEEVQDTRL
Method in brief: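 Compound acted as corrector on differentiated primary delF508-CFTR bronchial cultures, first 24 h basolaterally, then 45 min both sides before reading. Equivalent short circuit current was recorded during sequential forskolin and potentiator addition. EC50 came from 10-point, 1-in-3 dilution curves against the 0.1% DMSO baseline.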

[2] = molecular target: T2, delF508-CFTR-HRP (Homo sapiens, UniProt P13569, DEL508-508); experiment: Measurement of delF508-CFTR-HRP surface expression in CFBE41o- cells (HRP luminescence); assay type: cell-based; conditions: for Emax: CFBE41o-, read-out: DelF508-CFTR-HRP Amax %; for EC50: mean of at least two replicates;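 on DelF508-CFTR-HRP Amax %: percent efficacy relative to a reference CFTR corrector compound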
T2 construct: expressed in transfected cells
T2 sequence (P13569 with tags, fused parts or gaps DEL508-508): as above
Method in brief: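 EC50 derived by logistic regression of triplicate surface-HRP luminescence, plate-normalized to the lowest-concentration median. Doxycycline (500 ng/mL, 48 h) induced delF508-CFTR-HRP in CFBE41o- cells; compounds then applied 24 h at 37° C, 10 μM top, 3-fold over 10 points.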

Row | MTECC24 CFHBEC-Amax % [1] [%] | EC50 [1] [µM] | Emax [2] [%] | EC50 [2] [µM] | Compound
1 | 120 | 0.061 | 326 | 2.61 | Cc1ccc(C2CCCCC2)c(OC2(C(=O)NS(=O)(=O)c3cccc(N4CCC(N)(CF)CC4)n3)CC2)c1 [Example 2-19, N-((6-(4-Amino-4-(fluoromethyl)piperidin-1-yl)pyridin-2-yl)sulfonyl)-1-(2-cyclohexyl-5-methylphenoxy)cyclopropanecarboxamide]
2 | 113.6 | 0.261 | 311 | 1.18 | Cc1ccc(OCCC2CCCCC2)c(OC2(C(=O)NS(=O)(=O)c3cccc(N4CC[C@H](O)C4)n3)CC2)c1 [Example 6-11, (S)-1-(2-(2-cyclohexylethoxy)-5-methylphenoxy)-N-((6-(3-hydroxypyrrolidin-1-yl)pyridin-2-yl)sulfonyl)cyclopropanecarboxamide]
3 | 83 | 0.04 | 381 | 2.51 | Cc1ccc(S(=O)(=O)N2CC3(CCN3c3cccc(S(=O)(=O)NC(=O)C4(Oc5cc(C)ccc5C5CCCCC5)CC4)n3)C2)cc1 [Example 2-56, 1-(2-Cyclohexyl-5-methylphenoxy)-N-((6-(6-tosyl-1,6-diazaspiro[3.3]heptan-1-yl)pyridin-2-yl)sulfonyl)cyclopropane-1-carboxamide]
